Test results: patent publication US20090197279A1, “MICROTUBULE SYNTHESIS AS A BIOMARKER” (KINEMED, INC., priority 2005, published 2009)
“Also recorded” adds a separate entry of the source.

Assays:
[1] = system: C57BL/6JBomTac mice; assay: Contextual fear conditioning (CFC), freezing behavior; assay type: in vivo, mouse
Source text: FIG. 10 depicts microtubule/tubulin exchange during hippocampus-dependent contextual memory. (A) Protocol for measurement of microtubule/tubulin exchange during contextual fear conditioning (CFC). Tubulin dimers and microtubules subsets were labeled to plateau through continuous ^2H2O labeling, starting one day before CFC training. Labeling was continued throughout CFC training (Day 2) and the contextual conditioning test until mice were euthanized (Day 3). Vehicle or nocodazole treated-mice were injected 4 hours before CFC training, consisting of three pairings of conditioned and unconditioned stimuli inside an observation chamber, as described in Example 7 below. […] Microtubule subpopulations were fractionated as described below, and the percentage of newly synthesized tubulin was quantified by GC/MS (mean±SD, n=3). […]
Fear conditioning experiments were done as previously described (Bourtchouladze, R. et al. Different training procedures recruit either one or two critical periods for contextual memory consolidation, each of which requires protein synthesis and PKA. Learn. Mem. 5, 365-374 (1998)). […] On day later, contextual conditioning was assessed for 3 consecutive minutes in the chamber in which the mice were trained (CFC test). […]

[2] = system: microtubule polymer; assay: Total abundance of microtubule polymer by Western blotting after CFC; assay type: in vivo, mouse; conditions: conditioned mice, nocodazole 0.2 mg/kg; data not shown
Source text: Tubulin was purified using minor modifications of protocols described previously (Fanara, P., Oback, B., Ashman, K., Podtelejnikov, A., Brandt, R. Identification of MINUS, a small polypeptide that functions as a microtubule nucleation suppressor. EMBO J. 18, 565-577 (1999); Fanara, P. et al. In vivo measurement of microtubule dynamics using stable isotope labeling with heavy water. Effect of taxanes. J. Biol. Chem. 279, 49940-49947 (2004). Briefly, cultured neurons were gently scraped off culture plates, washed in phosphate-buffered saline (PBS), and homogenized in microtubule-stabilizing buffer. […] The relative abundance of tubulin in each preparation (Tubulin dimers and TAU5-bound, MAP2-bound, and unbound microtubule fractions) was quantified by Western blot, and tubulin from these fractions was further purified by ion exchange and size exclusion chromatography, as previously described (Fanara, P. et al. In vivo measurement of microtubule dynamics using stable isotope labeling with heavy water. Effect of taxanes. J. Biol. Chem. 279, 49940-49947 (2004)).
To test the role of microtubule/tubulin exchange in hippocampus-dependent memory, we treated animals with nocodazole (0.2 mg/kg), a microtubule-depolymerizing agent, four hours prior to CFC training (FIG. 10A). […] The total abundance of microtubule polymer, as detected by Western blotting, was decreased as well (data not shown).

SMILES: COC(=O)Nc1nc2ccc(C(=O)c3cccs3)cc2[nH]1 [nocodazole]
- freezing behavior (% of freezing to context), CFC test ([1]; nocodazole 0.2 mg/kg i.p. 4 hours before CFC training, test one day after training, vs vehicle-treated mice): significant reduction; also recorded: significantly lower
- contextual fear responses measured immediately after training ([1]; nocodazole vs vehicle, data not shown): similar
- total abundance of microtubule polymer (Western blotting) [2]: decreased
